Results on five compounds are retold here after patent US20220251096A1, “7,8-DIHYDRO-4H-PYRAZOLO[4,3-c]AZEPINE-6-ONE COMPOUNDS” (Eli Lilly and Company, priority 2019, published 2022).

Molecules are shown by their SMILES.

One assay concerns the target T1, hBRD4 (Homo sapiens, UniProt O60885).
T1 construct: NanLuc-BRD4 Full Length (Promega, 0.0002 μg); host or cells: HEK293
Description: NanoBRET assay, BRD4 full length. The format is cell-based. As to conditions: NanoBRET in HEK293 cells, read after overnight incubation; mean ± Standard Deviation. The procedure: (§1) HEK293 cells are seeded at 10×10^6 cells/16 mL in DMEM+10% FBS in a T-75 flask and left to attach for 4-6 hours. Transfection reagents are diluted in Opti-MEM media (no phenol red, no FBS) and 8% Fugene HD containing expression plasmids at a final concentration of the following: 1: Histone H3.3 HaloTag DNA (Promega, 0.02 μg)+NanoLuc-CREBBP-BD (Promega, 0.0002 μg); 2: Histone H3.3 HaloTag DNA (Promega, 0.02 μg)+NanoLuc-EP300-BD (Promega, 0.0002 μg); 3: Histone H4 HaloTag DNA (0.02 μg)+NanLuc-BRD4 Full Length (Promega, 0.0002 μg). The DNA/Fugene mixtures are left at RT for 10 minutes. Transfection mix (800 μL) is added per flask and immediately swirled to cover the cells. The plates are returned to the incubator for overnight transfection. The next day, HaloTag NanoBRET 618 ligand (20 μL/vial of 0.1 mM) is thawed at RT. […]
(§2) Compound is serially diluted and added to 96-well plates (2 10 mM, 3-fold dilutions, 100% DMSO). […] CREBBP/EP300 plates are read after 4 hours incubation and the BRD4 plates are read after overnight incubation. To develop plates for reading, allow all reagents to reach RT before use. […] The plate is shaken for 1 minute to mix and within 10 minutes, read on Envision plate reader with the following settings: Mirror: Luminescence; Emission filter: E600LP; 2nd emission filter: D460/50; Measurement height (mm): 6.5; Measurement time (s): 0.2 second.

For a further assay, the system named is SW780. The assay can be described thus: Cell growth inhibition assay, SW780. It is filed as cell-based. As to conditions: Homo sapiens, 168 h; SW780, 7 days. As for the experimental part: (§3) Tumor cell lines are plated onto 96-well, black wall poly-D-lysine plates (Corning #354640), and incubated at 37° C., 5% CO2 for 18-24 hours. Compound was added at 1:3 dilutions in DMSO and cells were incubated at 37° C., 5% CO2 for 7 days. For adherent cell lines, cells were fixed and stained with propidium iodide and scanned on Acumen (channel 3 setting). For suspension cell lines, cell growth was monitored using Cell Titer-Glo reagent.

The next assay has as its system NCI-H1048. The assay can be described thus: Cell growth inhibition assay, NCI-H1048. The format is cell-based. As to conditions: Homo sapiens, 168 h; NCI-H1048, 7 days. The procedure: as §3
Another assay concerns NCI-H211. The assay can be described thus: Cell growth inhibition assay, NCI-H211. The format is cell-based. As to conditions: Homo sapiens, 168 h; NCI-H211, 7 days. The procedure: as §3
For a further assay, the system named is EOL-1. The assay can be described thus: Cell growth inhibition assay, EOL-1. The format is cell-based. As to conditions: Homo sapiens, EOL1, 168 h; EOL-1, 7 days. The procedure:
as §3

A further assay deals with MDA-MIB-453. Description: Cell growth inhibition assay, MDA-MIB-453. It is filed as cell-based. The note with it: 168 h; MDA-MIB-453, 7 days. As for the experimental part:
as §3

The test system of a further assay is KG-1a. Description: Cell growth inhibition assay, KG-1a. It is filed as cell-based. As to conditions: Homo sapiens, 168 h, 7 days. The procedure:
as §3

A further assay addresses T2, BRD4 (BD1) (Homo sapiens, UniProt O60885).
T2 construct: BRD4 (Bromodomain 1 (BD1) and Bromodomain 2 (BD2)); purchased DiscoverX (BromoKdELECT service)
The assay can be described thus: BromoKdELECT platform assay, BRD4 (BD1). The format is binding. As to conditions: 11 points dose-response, mean from a duplicate experiment. From the text: (§4) The purpose of this assay is to evaluate the in vitro target engagement and selectivity (https://www.discoverx.com/services/drug-discovery-development-services/epigenetic-profiling/bromoscan-epigenetic-profiling/bromokdelect). Assay measurement is based on the amount of bromodomain captured in test and control samples by using quantitative PCR technology that detects the DNA label associated to bromodomain. Compounds that bind the bromodomain active site prevents its binding to the immobilized ligand and will reduce the amount of bromodomain captured on the solid support. […] Thus, compound activity is monitored by measuring the amount of bromodomain captured in test versus control samples by using qPCR. Binding affinity for test compound-bromodomain interactions are calculated by measuring the amount of bromodomain captured on the solid support as a function of the test compound concentration.
(§5) Binding affinity (Kd) of the compounds of Examples 1 and 2 towards CREBBP, EP300 and BRD4 (Bromodomain 1 (BD1) and Bromodomain 2 (BD2)) are determined in an 11 points dose-response study (See Table 5). Data is represented as a mean from a duplicate experiment.

A further assay deals with T3, BRD4 (BD1, BD2) (Homo sapiens, UniProt O60885).
T3 construct: BRD4 (Bromodomain 1 (BD1) and Bromodomain 2 (BD2)); purchased DiscoverX (BromoKdELECT service)
The assay can be described thus: BromoKdELECT platform assay, BRD4 (BD1, BD2). The format is binding. As to conditions: 11 points dose-response, mean from a duplicate experiment.
Description: as §4, §5

A further assay concerns the target T4, BRD4 (BD2) (Homo sapiens, UniProt O60885).
T4 construct: BRD4 (Bromodomain 1 (BD1) and Bromodomain 2 (BD2)); purchased DiscoverX (BromoKdELECT service)
The assay can be described thus: BromoKdELECT platform assay, BRD4 (BD2). The format is binding. The note with it: 11 points dose-response, mean from a duplicate experiment.
Description: as §4, §5

In assay [1] the target is T5, EP300 (Homo sapiens, UniProt Q09472).
T5 sequence (Q09472 1049-1156 limits assumed): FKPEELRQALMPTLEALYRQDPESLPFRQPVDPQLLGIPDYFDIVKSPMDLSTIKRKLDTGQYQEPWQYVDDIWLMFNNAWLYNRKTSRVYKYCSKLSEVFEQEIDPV
Description: BromoKdELECT platform assay, EP300. Further details: purchased DiscoverX (BromoKdELECT service). The format is binding. As to conditions: 11 points dose-response, mean from a duplicate experiment.
Description: as §4, §5

In assay [2] the target is T6, CREBBP (Homo sapiens, UniProt Q92793). The assay can be described thus: BromoKdELECT platform assay, CREBBP. It is filed as binding. Set-up: purchased DiscoverX (BromoKdELECT service). As to conditions: 11 points dose-response, mean from a duplicate experiment.
Description: as §4, §5

The target of assay [3] is T5, EP300. The assay can be described thus: NanoBRET assay, EP300 bromodomain. It is filed as cell-based. Further details: NanoLuc-EP300-BD (Promega, 0.0002 μg); host or cells: HEK293. As to conditions: NanoBRET in HEK293 cells, read after 4 hours incubation; mean ± Standard Deviation. The procedure:
as §1, §2
(In general: BRET reads energy transfer from a luciferase to a nearby fluorophore.)

For assay [4], the target named is T6, CREBBP. The assay can be described thus: NanoBRET assay, CREBBP bromodomain. The format is cell-based. Set-up: NanoLuc-CREBBP-BD (Promega, 0.0002 μg); host or cells: HEK293. The note with it: NanoBRET in HEK293 cells, read after 4 hours incubation; mean ± Standard Deviation. The procedure:
as §1, §2

The subject of assay [5] is 22Rv1 prostate cancer cells. The assay can be described thus: Cell proliferation assay in 22Rv1. As to conditions: Homo sapiens, 22Rv1, 168 h, 22Rv1, 7 days; for inhibition at 0.37 µM: single agent at 370 nM. It is filed as cell-based. As for the experimental part:
The purpose of the following cell proliferation assay is to detect whether the compound of Example 2 and combinations thereof have an effect on cell proliferation.
22Rv1 (purchased from ATCC CRL-2505) cells are seeded at a density of 1,000 cells per well in RMPI 10% FBS (20 μL volume) into a clear bottom 384-well cell culture plate. The plate is incubated at 37° C. and 5% CO2. The cells are dosed the following day with the compound of Example 2 and the compound of Example 2 in combination with the known anti-cancer therapeutics found in the table below. An Echo 555 acoustic dispenser is used to prepare serial dilutions (1:3) of the compound of Example 2, and combinations thereof, in concentrations ranging from 60 μM to 0.003 μM. The cells are then dosed by addition of 5 μL from the serial dilution plate to the cell plate, producing a final DMSO concentration of 0.2% with a final concentration dose ranging from 20 μM to 0.001 μM for the compound of Example 2 and combinations thereof.
Media containing 0.2% DMSO is used for the maximum point and 2 μM staurosporine in the growth media containing 0.2% DMSO is used for the minimum point. After dosing with the compound of Example 2 and combinations thereof, the cell plates are incubated at 37° C. and 5% CO2. Seven days after test compound addition, plates are removed from the incubator and cold EtOH (96%, 65 μL) is added to each well. After 30 minutes, the media is removed and RNase (20 μL, 50 μg/mL) (Sigma) and a 1:1000 propidium iodide dilution in PBS are added to each well. The plates are sealed and incubated for 1 hour at room temperature and preserved from light. Plates are then scanned with ACUMEN EXPLORER™ [Laser-scanning fluorescence microplate cytometer manufactured by TTP LABTECH LTD]. The number of 22Rv1 cells is evaluated through an estimated number of cells, calculated through the area parameter (ratio of total area of the total cells population), a designated range of peak intensity of FL-3 (PI), and the mean area of the single cell population defined by perimeter. Data is then processed through an NGR screening tool. Data is analyzed using a 4-parameter nonlinear logistic equation (four-parameter logistic concentration-response curve): Y=bot+[(top−bot)/1+(x/IC50)slope] where Y=% inhibition, X=concentration yielding y % inhibition, “bot”=minimum value of y attained by curve, “top”=maximum value of y attained by curve, and “slope”=steepness of curve at IC50. % Inh=[(median Max−x/median Max−median Min)]·100.

T6 sequence (Q92793 1085-1192 limits assumed): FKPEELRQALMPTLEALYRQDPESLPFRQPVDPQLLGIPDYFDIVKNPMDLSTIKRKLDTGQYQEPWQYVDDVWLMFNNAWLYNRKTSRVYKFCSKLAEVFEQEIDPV

Regarding `CNC(=O)c1ccc(-c2cc3cccc(-c4nn(C)c5c4CN(C)C(=O)CC5)c3cn2)cn1` [Example 1, 5-[8-(1,5-Dimethyl-6-oxo-7,8-dihydro-4H-pyrazolo[4,3-c]azepin-3-yl)-3-isoquinolyl]-N-methyl-pyridine-2-carboxamide], the IC50 (usually the point on the concentration scale where inhibition reaches its midpoint) against hBRD4 amounted to 5570 ± 4100 nM; in the assay on SW780 it was 1 nM; in the assay with NCI-H1048 it was 10 nM; with NCI-H211, 36 nM; in the assay with EOL-1, 0.8 nM; in the assay with MDA-MIB-453, 28 nM. For the same compound, the IC50 in the assay on KG-1a was 37 nM; at EP300 [3], 15.1 ± 2.75 nM; against CREBBP [4], 16 ± 6.64 nM. Besides, the Kd (as a rule, the equilibrium constant for the complex coming apart) on BRD4 (BD1) came out at 2000 nM; at BRD4 (BD1, BD2) it was 4400 nM; on BRD4 (BD2), 6700 nM; on EP300 [1], 0.16 nM; at CREBBP [2] it was 1.1 nM.
Turning to `CNC(=O)c1ccc(N2C(=S)N(c3ccc(C#N)c(C(F)(F)F)c3)C(=O)C2(C)C)cc1F` [Enzalutamide, enzalutamide, reference compound], in [5], the inhibition (as a rule, the change of the read-out against control, counted positive when it falls) at 0.37 µM is -0.12%. In [5] (single agent at 3.3 μM), the inhibition at 3.3 µM was 0.41%.
For `CC(O)c1cc(C(=O)N[C@@H](C)Cn2ccc(-c3ccc(C#N)c(Cl)c3)n2)[nH]n1` (stereo partly shown) [Darolutamide, darolutamide, reference compound], the inhibition at 0.74 µM in assay [5] (single agent at 740 nM) was 6.69%. For the same compound, the inhibition at 2.2 µM in assay [5] (single agent at 2.2 μM) amounted to 6.18%.
Consider `CCN1CCN(Cc2ccc(Nc3ncc(F)c(-c4cc(F)c5nc(C)n(C(C)C)c5c4)n3)nc2)CC1` [Abemaciclib, abemaciclib, reference compound], for which the inhibition at 0.012 µM in [5] (single agent at 12 nM) is 34.3%. For the same compound, in assay [5] (single agent at 37 nM), the inhibition at 0.037 µM was 62.4%.
With `Cc1nc(NC(=O)N2CCC[C@H]2C(N)=O)sc1-c1ccnc(C(C)(C)C(F)(F)F)c1` [Alpelisib, alpelisib, reference compound], in [5] (single agent at 120 nM), the inhibition at 0.12 µM came out at 33.1%. Further, the inhibition at 0.37 µM in [5] came to 45.3%.
